# In US10358454B2, “Marinopyrrole derivatives and methods of making and using same” (H. LEE MOFFITT CANCER CENTER AND RESEARCH INSTITUTE, INC., priority 2014, dated 2019):
# “Also recorded” adds a separate entry of the source. Read-outs that look alike come from different tables or passages of the source.
# Assays:
# Mcl-1/Bim = Mcl-1/Bim (Homo sapiens, UniProt Q07820); test: Mcl-1/Bim ELISA (GST-Mcl-1 binding to biotinylated Bim BH3 peptide); conditions: for fold loss of potency against Mcl-1/Bim: 1-15 and 1-13 vs 1-10, 1-14 vs 1-11, 1-16 vs 1-15, 1-12 vs 1-9, 1-22, 1-21, 1-20 vs 1-23, 1-37 and N-Me methoxy analogue vs (±)-1; for selectivity for Mcl-1 over Bcl-xL (Mcl-1/Bim over Bcl-xL/Bim): ratio of ELISA IC50 values
# Protocol: (§1) ELISAs were performed using a modified version of a previously described procedure (Doi K et al. J. Biol. Chem. 2012, 287, 10224-10235). Briefly, 40 nM of biotinylated Bim BH3 peptide (Biomatik) in SuperBlock blocking buffer (Pierce) was incubated in high-binding capacity streptavidin-coated plates (Pierce) for 2 h. Compounds were diluted in 120 μl of PBS containing 10 nM of GST-Mcl-1 or GST-Bcl-xL in 1.5 mL tubes for 15 min. Wells were washed with wash buffer (PBS containing 0.05% Tween-20) and then 100 μL of the compound/GST-protein mixture was transferred to the wells. The plates were incubated for 2 h, and then the wells were washed with wash buffer. HRP-conjugated anti-GST antibody (Bethyl Laboratories) was diluted 1:2000 in SuperBlock and 100 μL was transferred to each well. The plate was incubated for 1 h, and then the wells were washed with wash buffer followed by PBS. 100 μL of SureBlue TMB Microwell Peroxidase Substrate (VWR) was added to each well and plates were developed for 5-10 min. 100 μL of 1 N HCl was added to each well to stop the reaction and absorbance was read at 450 nm using a μQuant plate reader (Bio-Tek).
# (§2) ELISAs were performed using a similar procedure as previously described (Doi K, et al. J. Biol. Chem. 2012, 287, 10224-10235). Briefly, 40 nM of biotinylated Bim BH3 peptide (Biomatik) in SuperBlock blocking buffer (Pierce) was incubated in high-binding capacity streptavidin-coated plates (Pierce) for 2 h. Compounds were diluted in 120 μl of PBS containing 10 nM of GST-Mcl-1 or GST-Bcl-xL in 1.5 mL tubes for 15 min. Wells were washed with wash buffer (PBS containing 0.05% Tween-20) and then 100 μL of the compound/GST-protein mixture was transferred to the wells. The plates were incubated for 2 h, and then wells were washed with wash buffer. HRP-conjugated anti-GST antibody (Bethyl Laboratories) was diluted 1:2000 in SuperBlock and 100 μL was transferred to each well. The plate was incubated for 1 h, and then wells were washed with wash buffer followed by PBS. 100 μL of SureBlue TMB Microwell Peroxidase Substrate (VWR) was added to each well and plates were developed for 5-10 min. 100 μL of 1 N HCl was added to each well to stop the reaction and absorbance was read at 450 nm using μQuant plate reader (Bio-Tek).
# Bcl-xL/Bim = Bcl-xL/Bim (Homo sapiens, UniProt Q07817); test: Bcl-xL/Bim ELISA (GST-Bcl-xL binding to biotinylated Bim BH3 peptide)
# Protocol: as §1, §2
# [1] = Table 2-B, n ≥ 3, read-out: Mcl-1/Bim IC50 (average ± SEM)
# [2] = Table 3-A structure I, Mcl-1 at 10 nM, n ≥ 3, read-out: Mcl-1-Bim IC50 (average ± SEM)
# [3] = Table 3-A structure I, Bcl-xL at 10 nM, n ≥ 3, read-out: Bcl-xL-Bim IC50 (average ± SEM)
# [4] = Table 2-A, n ≥ 3, read-out: Mcl-1/Bim IC50 (average ± SEM)
# [5] = Table 3-B structure II, n ≥ 3, read-out: Mcl-1-Bim IC50 (average ± SEM)
# [6] = read-out: IC50 to inhibit the binding of Mcl-1 to Bim
# [7] = Table 2-A, n ≥ 3, read-out: Bcl-xL/Bim IC50 (average ± SEM)
# [8] = Table 3-B structure II, n ≥ 3, read-out: Bcl-xL-Bim IC50 (average ± SEM)
# Mcl-1/Bim, sequence (Q07820 whole entry): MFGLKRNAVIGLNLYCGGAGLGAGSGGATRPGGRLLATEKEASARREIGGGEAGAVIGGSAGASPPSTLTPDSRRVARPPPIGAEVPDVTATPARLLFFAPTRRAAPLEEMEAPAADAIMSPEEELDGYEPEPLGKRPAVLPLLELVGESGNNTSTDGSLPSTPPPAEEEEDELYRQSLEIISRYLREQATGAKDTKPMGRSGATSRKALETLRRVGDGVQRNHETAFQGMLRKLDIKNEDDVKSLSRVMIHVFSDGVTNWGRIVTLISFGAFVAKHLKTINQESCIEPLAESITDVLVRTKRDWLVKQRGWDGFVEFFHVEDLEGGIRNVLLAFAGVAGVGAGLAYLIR
# Bcl-xL/Bim, sequence (Q07817 whole entry): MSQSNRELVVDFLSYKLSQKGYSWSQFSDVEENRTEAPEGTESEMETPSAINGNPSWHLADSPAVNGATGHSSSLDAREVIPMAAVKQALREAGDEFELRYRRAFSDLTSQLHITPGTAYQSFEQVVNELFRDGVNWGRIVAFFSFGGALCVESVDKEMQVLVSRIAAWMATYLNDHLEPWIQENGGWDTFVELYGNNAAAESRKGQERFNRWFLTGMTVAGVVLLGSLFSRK
Compound,fold loss of potency against Mcl-1/Bim (Mcl-1/Bim) [fold],IC50 (Mcl-1/Bim; [1]) [µM],IC50 (Mcl-1/Bim; [2]) [µM],selectivity for Mcl-1 over Bcl-xL (Mcl-1/Bim over Bcl-xL/Bim) (Mcl-1/Bim),IC50 (Mcl-1/Bim; [4]) [µM],IC50 (Mcl-1/Bim; [5]) [µM],IC50 (Mcl-1/Bim; [6]) [µM],IC50 (Bcl-xL/Bim; [7]) [µM],IC50 (Bcl-xL/Bim; [8]) [µM],activity against Bcl-xL/Bim in words (Bcl-xL/Bim),further results
"O=C(c1ccc(S(=O)(=O)Cc2ccccc2)cc1O)c1[nH]c(Cl)c(Cl)c1-n1c(C(=O)c2ccc(S(=O)(=O)Cc3ccccc3)cc2O)cc(Cl)c1Cl [Compound 1-13, (4,4′,5,5′-Tetrachloro-1′H-1,3′-bipyrrole-2,2′-diyl)bis(((2-hydroxy-4-benzylsulfonyl)phenyl)methanone)]",16,11.2 ± 4,7.3 ± 1.4,–,–,–,–,–,–,–,IC50 (Bcl-xL/Bim; [3]): 69.3 ± 5.8 µM
COc1ccc(CS(=O)(=O)c2ccc(C(=O)c3[nH]c(Cl)c(Cl)c3-n3c(C(=O)c4ccc(S(=O)(=O)Cc5ccc(OC)cc5)cc4O)cc(Cl)c3Cl)c(O)c2)cc1 [Compound 1-14],25,17.4 ± 3.1,–,–,–,–,–,–,–,–,–
O=C(O)CSc1ccc(C(=O)c2[nH]c(Cl)c(Cl)c2-n2c(C(=O)c3ccc(SCC(=O)O)cc3O)cc(Cl)c2Cl)c(O)c1 [Compound 1-15],8.7,6.1 ± 1.3,6.1 ± 1.3,over 16 fold,–,–,–,–,–,–,"selectivity profile Mcl-1 vs Bcl-xL in words (Mcl-1/Bim; from Mcl-1/Bim and Bcl-xL/Bim ELISA): much more selective for Mcl-1 over Bcl-xL; IC50 (Mcl-1/Bim; read-out: IC50 to disrupt Mcl-1/Bim binding): 6.1 µM; IC50 (Bcl-xL/Bim; Table 2-B, n ≥ 3 unless specified, read-out: Bcl-xL/Bim IC50 (average ± SEM)): > 100 µM; IC50 (Bcl-xL/Bim; [3]): > 100 µM; IC50 (Bcl-xL/Bim; read-out: IC50 to inhibit Bcl-xL/Bim binding): > 100 µM"
O=C(O)CS(=O)(=O)c1ccc(C(=O)c2[nH]c(Cl)c(Cl)c2-n2c(C(=O)c3ccc(S(=O)(=O)CC(=O)O)cc3O)cc(Cl)c2Cl)c(O)c1 [Compound 1-16],10,–,63 ± 5.4,–,–,–,–,–,–,–,activity against Mcl-1/Bim in words (Mcl-1/Bim): lost potency

# Further lines, with some results ahead:
fold loss of potency against Mcl-1/Bim (Mcl-1/Bim) [fold],IC50 (Mcl-1/Bim; [1]) [µM],IC50 (Mcl-1/Bim; [2]) [µM],selectivity for Mcl-1 over Bcl-xL (Mcl-1/Bim over Bcl-xL/Bim) (Mcl-1/Bim),IC50 (Mcl-1/Bim; [4]) [µM],IC50 (Mcl-1/Bim; [5]) [µM],IC50 (Mcl-1/Bim; [6]) [µM],IC50 (Bcl-xL/Bim; [7]) [µM],IC50 (Bcl-xL/Bim; [8]) [µM],Compound,activity against Bcl-xL/Bim in words (Bcl-xL/Bim),further results
–,–,–,12.9 fold,7.8 ± 1.5,7.8 ± 1.5,7.8,> 100,> 100,"CCOC(=O)Cn1cc(-c2cc(O)c(C(=O)c3[nH]c(Cl)c(Cl)c3-n3c(C(=O)c4cc(Cl)c(-c5cn(CC(=O)OCC)nn5)cc4O)cc(Cl)c3Cl)cc2Cl)nn1 [Compound 1-17, Diethyl 2,2′-(4,4′-((4,4′,5,5′-tetrachloro-1′H-1,3′-bipyrrole-2,2′-dicarbonyl)bis(2-chloro-5-hydroxy-4,1-phenylene))bis(1H-1,2,3-triazole-4,1-diyl))diacetate]",not active,–
–,–,–,8.3 fold,–,–,–,–,–,"CC(C)(C)OC(=O)Cn1cc(-c2cc(O)c(C(=O)c3[nH]c(Cl)c(Cl)c3-n3c(C(=O)c4cc(Cl)c(-c5cn(CC(=O)OC(C)(C)C)nn5)cc4O)cc(Cl)c3Cl)cc2Cl)nn1 [Compound 1-18, Di-tert-butyl 2,2′-(4,4′-((4,4′,5,5′-tetrachloro-1′H-1,3′-bipyrrole-2,2′-dicarbonyl)bis(2-chloro-5-hydroxy-4,1-phenylene))bis(1H-1,2,3-triazole-4,1-diyl))diacetate]",–,–
–,–,–,5.4 fold,18.4 ± 0.3,18.4 ± 0.3,18.4,> 100,> 100,"CCOC(=O)Cn1cc(-c2ccc(C(=O)c3[nH]c(Cl)c(Cl)c3-n3c(C(=O)c4ccc(-c5cn(CC(=O)OCC)nn5)cc4O)cc(Cl)c3Cl)c(O)c2)nn1 [Compound 1-24, Diethyl 2,2′-(4,4′-((4,4′,5,5′-tetrachloro-1′H-1,3′-bipyrrole-2,2′-dicarbonyl)bis(3-hydroxy-4,1-phenylene))bis(1H-1,2,3-triazole-4,1-diyl))diacetate]",not tolerated; also recorded: not active,–
–,–,–,1.6 fold,–,–,–,–,–,"CC(C)(C)OC(=O)Cn1cc(-c2ccc(C(=O)c3[nH]c(Cl)c(Cl)c3-n3c(C(=O)c4ccc(-c5cn(CC(=O)OC(C)(C)C)nn5)cc4O)cc(Cl)c3Cl)c(O)c2)nn1 [Compound 1-25, Di-tert-butyl 2,2′-(4,4′-((4,4′,5,5′-tetrachloro-1′H-1,3′-bipyrrole-2,2′-dicarbonyl)bis(3-hydroxy-4,1-phenylene))bis(1H-1,2,3-triazole-4,1-diyl))diacetate]",–,–
–,–,–,3.0 fold,16.5 ± 1.9,16.5 ± 1.9,16.5,> 50,> 50,"O=C(O)Cn1cc(-c2ccc(C(=O)c3[nH]c(Cl)c(Cl)c3-n3c(C(=O)c4ccc(-c5cn(CC(=O)O)nn5)cc4O)cc(Cl)c3Cl)c(O)c2)nn1 [Compound 1-26, 2,2′-(4,4′-((4,4′,5,5′-Tetrachloro-1′H-1,3′-bipyrrole-2,2′-dicarbonyl)bis(3-hydroxy-4,1-phenylene))bis(1H-1,2,3-triazole-4,1-diyl))diacetic acid]",not tolerated; also recorded: not active,–
